According to patent US11633383B2, “Dosage principle for drugs useful for treating neoplastic diseases” (Basilea Pharmaceutica International AG, priority 2017, dated 2023):
Blank lines part the entries; values can stand above or below the compound they belong to.

Assays:
[1] = Plasma concentrations of BAL27862 (Cmax, AUC) in patients, 48-hour intravenous infusion study; assay type: in vivo, human; conditions: for AUClast / Cmax: BAL27862 in plasma; for AUC: plasma, BAL27862, compared as weekly exposure
Protocol: (§1) In another clinical trial BAL101553 (dihydrochloride salt) was given as a 48-hour infusion on days 1, 8 and 15 of each 28 day cycle.
(§2) BAL101553 (dihydrochloride salt) for intravenous administration is prepared by reconstitution of lyophilized BAL101553 (dihydrochloride salt) with saline solution or Ringer lactate solution, prior to further dilution with Ringer lactate for intravenous infusion to the patient. The 48-hour infusion is administered via an elastomeric pump (Baxter) using an infusion volume of 120 ml or 240 ml.
48-hour intravenous infusion study: on day 1 of cycle 1 blood samples were collected at pre-dose and where clinically feasible 0.5, 1, 2, 4, 8, 24, 30, 48, 52, 54, 72, and 168 hours after dosing.
(§3) Venous blood samples were collected into chilled 2 ml plastic tubes containing K2-EDTA as an anticoagulant mixed with 20 μl 2M citric acid and kept on ice for 15 minutes. Approximately 1.0 ml plasma was prepared by centrifugation at 1′500×g for 10-15 minutes at 4° C., transferred into new vials and stored at −80° C. until analysis. Plasma concentrations of BAL27862 were determined with a fully validated LC-MS/MS method:
(§4) 50 μl of acetonitrile was added to 25 μl plasma containing stable labelled internal standards (IS). After vortexing, the samples were centrifuged for 10 minutes at 50′000×g at 8° C. and 50 μl of the supernatant was transferred to an empty auto-sampler vial. The extract was separated by liquid chromatography, performed using water (0.1% formic acid) as mobile phase A and acetonitrile (0.1% formic acid) as mobile phase B. The column used was a YMC Hydroshere C18, 2.1×33 mm, 3 μm (YMC Co, Kyoto, Japan). The injection volume was set to 2 μL (full loop).
(§5) Detection was carried out using a triple-stage quadrupole MS/MS (TSQ Vantage, Thermo Fisher
(§6) Scientific, San Jose, Calif., USA) in the selected reaction monitoring mode.
(§7) The following calibration range was applied:
(§8) 1 to 1000 ng/ml for BAL27862 in human plasma ([…], citric acid)
(§9) Calculation of Pharmacokinetic Parameters (exposure [Area Under the Curve—AUC] and peak [Cmax] drug levels) for Human Samples:
(§10) AUC and Cmax of BAL27862 were calculated by non-compartmental analysis (NCA) using Phoenix WinNonLin 7.0 software from Certara.

[2] = Plasma concentrations of BAL27862 (Cmax, AUC) in patients, 2-hour intravenous infusion study; assay type: in vivo, human; conditions: mean
Protocol: (§11) In one clinical trial BAL101553 (dihydrochloride salt) was given as a 2-hour infusion on days 1, 8, and 15 of each 28-day cycle (comparative Example).
as §2
2-hour intravenous infusion study: on day 1 of cycle 1 blood samples were collected at pre-dose and where clinically feasible 0.5, 1, 2, 3, 4, 6, 8 and 24 hours after dosing.
as §3, §4, §5, §6, §7, §8, §9, §10

[3] = Plasma concentrations of BAL27862 (Cmax, AUC) in patients, daily oral administration study; assay type: in vivo; conditions: human, BAL101553 dihydrochloride daily oral, N=7; for AUC: plasma, BAL27862, compared as weekly exposure; for Cmax: BAL27862 in plasma
Protocol: (§12) In another clinical trial BAL101553 (dihydrochloride salt) was given as a daily oral administration in treatment cycles consisting of 28 days of continuous, daily administration to patients in a fasted state (comparative Example).
(§13) BAL101553 (dihydrochloride salt) for oral administration is prepared as a HPMC capsules containing 1 mg active ingredient, 98 mg of mannitol and 1 mg magnesium stearate, or 5 mg active ingredient, 94 mg mannitol and 1 mg magnesium stearate.
Daily oral administration study: on day 1 of cycle 1 blood samples were collected at pre-dose and where clinically feasible 0.5, 1, 2, 3, 4, 6, 8 and 24 hours after intake of study medication.
as §3, §4, §5, §6, §7, §8, §9, §10

[4] = test system: tumour; assay: Clinical trials of BAL101553: tumour response; assay type: in vivo, human
Source text: as §1, §12

[5] = Blood pressure measurements in patients treated with BAL101553; assay type: in vivo, human; conditions: cycle 1 day 1
Protocol: On day 1 of cycle 1 of the 2-hour and 48-hour intravenous infusion studies systolic and diastolic blood pressures were measured using a calibrated, automated blood pressure device at various time points, i.e. prior to the first administration of study drug and then at least hourly for the first 4 hours after start of dosing.

[6] = Clinical trials of BAL101553: maximum tolerated dose and adverse drug reactions; assay type: in vivo, human
Source text: as §11, §1, §12, §2, §13

[7] = cited from earlier work
[8] = cited from earlier work; remark: listed apart in the source
[9] = BAL101553 dihydrochloride 45 mg/m^2, 48 hours infusion, mean, N=3, cycle 1 day 1
[10] = BAL101553 dihydrochloride 70 mg/m^2, 48 hours infusion, mean, N=4, cycle 1 day 1
[11] = BAL101553 dihydrochloride 90 mg/m^2, 48 hours infusion, mean, N=4, cycle 1 day 1
[12] = BAL101553 dihydrochloride 45 mg/m^2, 2 hours infusion, N=8, cycle 1 day 1
[13] = BAL101553 dihydrochloride 60 mg/m^2, 2 hours infusion, N=21, cycle 1 day 1
[14] = 2-hour infusion on study days 1, 8 and 15, q28 days, 2016 ASCO poster

variability of pharmacokinetic exposure (AUC) ([1]; 48-hour dose regimen versus daily oral regimen): lower variability
AUClast [1, 9]: 3830 h*ng/m
Cmax [1, 9]: 77.7 ng/m
AUClast [1, 10]: 9030 h*ng/m
Cmax [1, 10]: 152 ng/m
AUClast [1, 11]: 12000 h*ng/m
Cmax [1, 11]: 238 ng/m
Cmax ([1]; human, intravenous, BAL101553 dihydrochloride 48-hour infusion, 70 mg/m^2, N=9, read-out: Cmax (mean, ng/ml)): 148 ng/mL
Cmax ([1]; human, intravenous, BAL101553 dihydrochloride 48-hour infusion, 90 mg/m^2, N=4, read-out: Cmax (mean, ng/ml)): 238 ng/mL
AUC ([1]; human, intravenous, BAL101553 dihydrochloride 48-hour infusion, 70 mg/m^2, N=9): 8580 ng·h/mL
AUC ([1]; human, intravenous, BAL101553 dihydrochloride 48-hour infusion, 90 mg/m^2, N=4): 13500 ng·h/mL
AUClast [2, 12]: 4340 h*ng/m
Cmax [2, 12]: 356 ng/m
AUClast [2, 13]: 6040 h*ng/m
Cmax [2, 13]: 498 ng/m
AUC ([3]; 16 mg): 8400 ng·h/mL
AUC ([3]; 20 mg): 12200 ng·h/mL
Cmax ([3]; 16 mg): 131 ng/mL
Cmax ([3]; 20 mg): 134 ng/mL
Compound: N#CCCNc1nonc1-c1nc2ccccc2n1CC(=O)c1ccc(N)cc1 [BAL27862, 3-(4-{1-[2-(4-Amino-phenyl)-2-oxo-ethyl]-1H-benzoimidazol-2-yl}-furazan-3-ylamino)-propionitrile]

Compound: N#CCCNc1nonc1-c1nc2ccccc2n1CC(=O)c1ccc(NC(=O)[C@@H](N)CCCCN)cc1 [BAL101553, (S)-2,6-Diamino-hexanoic acid [4-(2-{2-[4-(2-cyano-ethylamino)-furazan-3-yl]-benzoimidazol-1-yl}-acetyl)-phenyl]-amide]
tumour response ([4]; 48-hour infusion regimen, MTD dose (70 mg/m^2)): partial tumour response in a patient
objective responses ([4]; daily oral dose regimen, any dose): no objective responses were observed
change from baseline in systolic and diastolic blood pressure ([5]; infused over 48 hours, 45 or 70 mg/m^2): neutral blood pressure profile or a minor average change from baseline
change from baseline in systolic and diastolic blood pressure ([5]; infusion duration of 2 hours, 45 or 60 mg/m^2): distinct changes from baseline
troponin elevation indicative of myocardial damage ([6]; 45 mg/m^2 or 60 mg/m^2, 2-hour infusion): Three patients
troponin elevation indicative of myocardial damage ([6]; 45 mg/m^2 or 70 mg/m^2, 48-hour infusion): not observed
Grade 4 hyponatremia ([6]; 90 mg/m^2 (supra-MTD), 48-hour infusion regimen): no observation of Grade 4 hyponatremia
maximum tolerated dose (MTD) ([6]; 48-hour infusion on days 1, 8 and 15 of each 28 day cycle): 70 mg/m^2
Serious Grade 4 adverse drug reactions ([6]; 48-hour infusion, 70 mg/m^2, N=9): None
Serious Grade 4 adverse drug reactions ([6]; 48-hour infusion, 90 mg/m^2, N=4): None
maximum tolerated dose (MTD) ([6]; daily oral administration, 28-day cycles, fasted state): 16 mg/day
serious Grade 4 hyponatremia ([6]; daily oral dose of 20 mg/day (supra-MTD)): 2 patients
Serious Grade 4 adverse drug reactions ([6]; daily oral, 16 mg, N=7): None
Serious Grade 4 adverse drug reactions ([6]; daily oral, 20 mg, N=7): 2 patients with
myocardial ischemia [7, 14]: asymptomatic myocardial ischemia
recommended phase 2 dose [7, 14]: 30 mg/m^2
vascular effects ([7]; 2-hour infusion, related to peak drug concentration (Cmax), 2016 ASCO poster): dose-dependent vascular effects that were dose-limiting
MTD ([7]; 2-hour intravenous administration, phase I escalation study of WO2015/173341): 60 mg/m^2
water solubility [8]: highly water-soluble
